Laboratory results published in patent US9260439B2, “Dihydropyrrolopyrimidine derivatives” (PFIZER INC., priority 2014, dated 2016).
Structures can show the parent of a compound that is named as a salt.

target: truncated PI3Kα (p110α/iSH2 p85α) (Homo sapiens (Human), UniProt P42336); experiment: PI3KA_Act fluorescence polarization kinase assay (Ki); assay type: biochemical; conditions: 1 mM ATP
From the text: 2) p110α-iSH2 p85α Complex (Full Length p110α and p85α iSH2)(“PI3KA_Act”)
Genes encoding for full length p110α and p85α nSH-iSH2=niSH2 (p85a aminoacids 322-600) subunits of PI3Kα complex were subcloned from existing constructs into pFASTBAC Dual vector (Life Technologies, Carlsbad, Calif.) using standard cloning procedures. Gene encoding p110α subunit was subcloned into polyhedrine promoter while gene encoding p85α niSH2 domains was subcloned into p10 promoter. Additionally, Human Rhinovirus 3C Protease (“HRV 3C”) site was introduced between nSH2 and iSH2, replacing aminoacids 431-438 of p85α with […] HRV 3C recognition sequence, using standard QuickChange mutagenesis protocol (Agilent Technologies, CA). Recombinant baculovirus was generated using Bac-to-Bac protocol (Life Technologies, Carlsbad, Calif.). Large scale expression was conducted in Sf21 (Life Technologies, Carlsbad, Calif.) cells at a multiplicity of infection (“MOI”)=1 for 48 hours. Cells were lyzed in 50 mM Tris pH 8.0, 250 mM NaCl, 5% glycerol, 0.25 mM TCEP, and 20 mM imidazole. The p110α-niSH2 p85α complex was purified from clarified supernatant using Immobilized Metalo Affinity Chromatography (“IMAC”). The protein was eluted from the column using 50 mM Tris pH 8.0, 200 mM NaCl, 0.25 mM TCEP, and 200 mM imidazole. Following elution p110α-niSH2 p85α complex was dialyzed against 4 liters of 50 mM Tris pH 8.0, 200 mM NaCl, 0.25 mM TCEP, and 40 mM imidazole in the presence of PreScission Protease (1:70 molar ratio of Protease to Protein) and TEV protease (1:40 molar ratio protease to protein) for 16 hours at 4° C. The protein was further purified using reverse IMAC to remove cleaved histidine tag and contaminants captured during initial IMAC purification. The mixture of p110α-iSH2 p85α complex and cleaved nSH2 was recovered in reverse IMAC 40 mM imidazole flow through and 60 mM imidazole wash fractions. Those fractions were pulled together and loaded on Superdex 200 26/60 SEC column equilibrated in 25 mM Tris, pH 8.0, 100 mM NaCl, 2% glycerol, and 2 mM TCEP. Following SEC, chromatography peak fractions containing p110α-iSH2 p85α complex were pulled and concentrated to 4.3 mg/mL. Purity and integrity of the complex was confirmed using LCMS, analytical SEC and SDS-PAGE (sodium dodecyl sulfate polyacrylamide gel electrophoresis) analysis.
The biochemical assays of kinase activity of full-length PI3Kα (full-length p110α/p85a) or truncated PI3Kα (p110α/iSH2 p85a) were conducted using a fluorescence polarization format similar to the procedure of Yuan J., et al., (2011) “PF-04691502, a Potent and Selective Oral Inhibitor of PI3K and mTOR Kinases with Antitumor Activity”, Mol Cancer Ther. 10, 2189-2199. The enzymatic reactions were conducted in 50 μL volumes in 96-well plates. The reactions contained human recombinant PI3Kα (2 nM full-length p110α/p85α or 0.5 nM p110α/iSH2 p85) and 30 μM phosphatidylinositol 4,5-bisphosphate (“PIP2”) (Cayman Chemical Company, Ann Arbor, Mich.) and were sonicated for 1 minute prior to adding PI3Kα enzyme (PI3KA_Act or PI3KA_FL), DMSO or test compound (12-point 3-fold serial dilution, 3 μM top dose, 2° A) DMSO final concentration), 5 mM MgCl2, 50 mM HEPES pH 7.4, 150 mM NaCl, 1 mM DTT ((2S,3S)-1,4-bis(sulfanyl)butane-2,3-diol), and 0.05% 3-[(3-cholamidopropyl)dimethylammonio]-1-propanesulfonate (“CHAPS”). […] The reactions were incubated for 30 min at room temperature, stopped with EDTA pH 8 (10 mM final concentration). In a detection plate, 15 μL of detector/probe mixture, containing 480 nM GST-Grp1 PH domain protein (University of Dundee, Dundee, UK) and 12 nM carboxytetramethylrhodamine (“TAMRA”)-tagged fluorescent phosphatidylinositol (3,4,5)-triphosphate (“PIP3”) (Echelon Biosciences, Inc., Salt Lake City, Utah) in assay buffer, was mixed with 15 μL of kinase reaction mixture. The plate was shaken for 30 minutes and fluorescence polarization values were measured on an LJL Analyst HT plate reader (Molecular Devices, Sunnyvale, Calif.). […]

Chain of truncated PI3Kα (p110α/iSH2 p85α) (P42336 whole entry, the tested form may be a part): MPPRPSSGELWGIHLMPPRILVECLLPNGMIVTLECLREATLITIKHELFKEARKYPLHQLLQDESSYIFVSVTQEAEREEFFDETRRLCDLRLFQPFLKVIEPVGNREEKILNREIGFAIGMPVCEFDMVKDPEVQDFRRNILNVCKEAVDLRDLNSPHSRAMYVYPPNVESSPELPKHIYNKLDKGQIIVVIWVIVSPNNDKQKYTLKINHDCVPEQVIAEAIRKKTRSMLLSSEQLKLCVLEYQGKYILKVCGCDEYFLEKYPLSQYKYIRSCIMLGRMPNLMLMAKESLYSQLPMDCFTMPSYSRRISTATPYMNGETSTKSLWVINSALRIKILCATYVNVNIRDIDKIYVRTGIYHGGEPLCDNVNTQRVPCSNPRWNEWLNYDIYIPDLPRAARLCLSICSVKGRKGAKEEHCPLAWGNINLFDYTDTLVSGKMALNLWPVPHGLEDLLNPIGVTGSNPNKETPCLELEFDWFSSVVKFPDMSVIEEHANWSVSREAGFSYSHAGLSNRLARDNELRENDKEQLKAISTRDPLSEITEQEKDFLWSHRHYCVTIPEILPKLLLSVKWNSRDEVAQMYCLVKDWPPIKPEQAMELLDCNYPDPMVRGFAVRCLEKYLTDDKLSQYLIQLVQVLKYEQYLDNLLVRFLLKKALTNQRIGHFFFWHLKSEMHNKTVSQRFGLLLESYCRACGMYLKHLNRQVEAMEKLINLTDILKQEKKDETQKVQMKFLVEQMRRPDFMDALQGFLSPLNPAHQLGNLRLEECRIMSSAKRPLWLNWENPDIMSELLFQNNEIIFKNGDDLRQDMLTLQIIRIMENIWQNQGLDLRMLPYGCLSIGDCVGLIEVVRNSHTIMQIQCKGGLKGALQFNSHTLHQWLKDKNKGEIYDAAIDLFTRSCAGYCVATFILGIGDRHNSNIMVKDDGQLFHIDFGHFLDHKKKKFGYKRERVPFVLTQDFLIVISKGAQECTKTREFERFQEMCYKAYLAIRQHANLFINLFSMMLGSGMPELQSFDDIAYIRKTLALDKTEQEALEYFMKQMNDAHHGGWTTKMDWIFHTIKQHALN

SMILES | PI3KA_Act Ki | Ki
C[C@]1(N2CCc3c(-c4cnc(N)nc4)nc(N4CCOCC4)nc32)CCN(C(=O)C2CCN2)C1.Cl (stereo partly drawn) [Example 348, {(3S)-3-[4-(2-aminopyrimidin-5-yl)-2-(morpholin-4-yl)-5,6-dihydro-7H-pyrrolo[2,3-d]pyrimidin-7-yl]-3-methylpyrrolidin-1-yl}(azetidin-2-yl)methanone hydrochloride] | 0.066 nM | 
C[C@]1(N2CCc3c(-c4cnc(N)nc4)nc(N4CCOCC4)nc32)CCN(C(=O)[C@@H]2CCC(=O)N2)C1 [Example 378, (5S)-5-({(3S)-3-[4-(2-aminopyrimidin-5-yl)-2-(morpholin-4-yl)-5,6-dihydro-7H-pyrrolo[2,3-d]pyrimidin-7-yl]-3-methylpyrrolidin-1-yl}carbonyl)pyrrolidin-2-one] | 0.082 nM | 
C[C@H](O)COC(=O)N1CC(N2CCc3c(-c4cnc(N)nc4)nc(N4CCOC[C@@H]4C)nc32)C1 [Example 182] | 0.357 nM | 
CC[C@H](N)C(=O)N1CC[C@](C)(N2CCc3c(-c4cnc(N)nc4)nc(N4CCOC[C@@H]4C)nc32)C1.Cl [Example 477, (2S)-2-amino-1-[(3S)-3-{4-(2-aminopyrimidin-5-yl)-2-[(3S)-3-methylmorpholin-4-yl]-5,6-dihydro-7H-pyrrolo[2,3-d]pyrimidin-7-yl}-3-methylpyrrolidin-1-yl]butan-1-one hydrochloride] | 0.038 nM | 
C[C@]1(N2CCc3c(-c4cnc(N)nc4)nc(N4CCOCC4)nc32)CCN(C(=O)[C@]2(C)CCN2)C1.Cl [Example 350, {(3S)-3-[4-(2-aminopyrimidin-5-yl)-2-(morpholin-4-yl)-5,6-dihydro-7H-pyrrolo[2,3-d]pyrimidin-7-yl]-3-methylpyrrolidin-1-yl}[(2S)-2-methylazetidin-2-yl]methanone hydrochloride] | 0.045 nM | 
CCOC(=O)C(C)C(=O)N1CC[C@](C)(N2CCc3c(-c4cnc(N)nc4)nc(N4CCOCC4)nc32)C1 (stereo partly drawn) [Example 321, ethyl 3-{(3S)-3-[4-(2-aminopyrimidin-5-yl)-2-(morpholin-4-yl)-5,6-dihydro-7H-pyrrolo[2,3-d]pyrimidin-7-yl]-3-methylpyrrolidin-1-yl}-2-methyl-3-oxopropanoate] | 0.042 nM | 
C[C@H]1COCCN1c1nc(-c2cnc(N)nc2)c2c(n1)N(C1CN(C(=O)OCC(=O)N(C)C)C1)CC2 [Example 152] | 0.103 nM | 
COC(C)(C)C(=O)N1CC[C@](C)(N2CCc3c(-c4cnc(N)nc4)nc(N4CCOCC4)nc32)C1 [Example 278, 1-{(3S)-3-[4-(2-aminopyrimidin-5-yl)-2-(morpholin-4-yl)-5,6-dihydro-7H-pyrrolo[2,3-d]pyrimidin-7-yl]-3-methylpyrrolidin-1-yl}-2-methoxy-2-methylpropan-1-one] | <0.018 nM | 
CN1CCC1(C)C(=O)N1CC[C@](C)(N2CCc3c(-c4cnc(N)nc4)nc(N4CCOCC4)nc32)C1 (stereo partly drawn) [Example 355, {(3S)-3-[4-(2-aminopyrimidin-5-yl)-2-(morpholin-4-yl)-5,6-dihydro-7H-pyrrolo[2,3-d]pyrimidin-7-yl]-3-methylpyrrolidin-1-yl}(1,2-dimethylazetidin-2-yl)methanone] | 0.102 nM | 
C[C@]1(N2CCc3c(-c4cnc(N)nc4)nc(N4CCOCC4)nc32)CCN(C(=O)C2(N)CCOC2)C1.Cl (stereo partly drawn) [Example 380, {(3S)-3-[4-(2-aminopyrimidin-5-yl)-2-(morpholin-4-yl)-5,6-dihydro-7H-pyrrolo[2,3-d]pyrimidin-7-yl]-3-methylpyrrolidin-1-yl}(3-aminotetrahydrofuran-3-yl)methanone hydrochloride] | 0.030 nM | 
C[C@H]1COCCN1c1nc(-c2cnc(N)nc2)c2c(n1)N([C@@]1(C)CCN(C(=O)[C@@H](N)C3CC3)C1)CC2.Cl [Example 481, (2S)-2-amino-1-[(3S)-3-{4-(2-aminopyrimidin-5-yl)-2-[(3S)-3-methylmorpholin-4-yl]-5,6-dihydro-7H-pyrrolo[2,3-d]pyrimidin-7-yl}-3-methylpyrrolidin-1-yl]-2-cyclopropylethanone hydrochloride] | 0.149 nM | 
C[C@H]1COCCN1c1nc(-c2cnc(N)nc2)c2c(n1)N([C@@]1(C)CCN(C(=O)C(C)(N)CO)C1)CC2.Cl (stereo partly drawn) [Example 487, 2-amino-1-[(3S)-3-{4-(2-aminopyrimidin-5-yl)-2-[(3S)-3-methylmorpholin-4-yl]-5,6-dihydro-7H-pyrrolo[2,3-d]pyrimidin-7-yl}-3-methylpyrrolidin-1-yl]-3-hydroxy-2-methylpropan-1-one hydrochloride] | 0.011 nM | 
C[C@]1(N2CCc3c(-c4cnc(N)nc4)nc(N4CCOCC4)nc32)CCN(C(=O)[C@@H]2CCCO2)C1 [Example 371, {(3S)-3-[4-(2-aminopyrimidin-5-yl)-2-(morpholin-4-yl)-5,6-dihydro-7H-pyrrolo[2,3-d]pyrimidin-7-yl]-3-methylpyrrolidin-1-yl}[(2S)-tetrahydrofuran-2-yl]methanone] | 0.091 nM | 
CN1CCC(N2CC[C@](C)(N3CCc4c(-c5cnc(N)nc5)nc(N5CCOCC5)nc43)C2)C1=O (single isomer, unassigned) [Example 427] | 0.073 nM | 
C[C@@]1(N2CCc3c(-c4cnc(N)nc4)nc(N4CCOCC4)nc32)CCN(C(=O)C(O)C2CC2)C1 (single isomer, unassigned) [Example 327] | 0.028 nM | 
CC(C)S(=O)(=O)N1CC(N2CCc3c(-c4cnc(N)nc4)nc(N4CCOC[C@H]4C)nc32)C1 [Example 224] | 2.296 nM | 
C[C@H]1COCCN1c1nc(-c2cnc(N)nc2)c2c(n1)N([C@@]1(C)CCN(C(=O)C3(F)CNC3)C1)CC2 [Example 496, [(3S)-3-{4-(2-aminopyrimidin-5-yl)-2-[(3S)-3-methylmorpholin-4-yl]-5,6-dihydro-7H-pyrrolo[2,3-d]pyrimidin-7-yl}-3-methylpyrrolidin-1-yl](3-fluoroazetidin-3-yl)methanone hydrochloride] |  | < 0.018 nM
COC(=O)N1CC[C@@](C)(N2CCc3c(-c4cnc(N)nc4)nc(N4CCOCC4)nc32)C1 [Example 214] | 0.128 nM | 
CC(C)(C)OC(=O)N1CCC(C)(N2CCc3c(-c4cnc(N)nc4)nc(N4CCOCC4)nc32)CC1 [Example 433, tert-butyl 4-[4-(2-aminopyrimidin-5-yl)-2-(morpholin-4-yl)-5,6-dihydro-7H-pyrrolo[2,3-d]pyrimidin-7-yl]-4-methylpiperidine-1-carboxylate] | 0.024 nM | 
CC[C@@]1(N2CCc3c(-c4cnc(N)nc4)nc(N4CCOCC4)nc32)CCNC1.Cl [Example 256, 5-{7-[(3R)-3-ethylpyrrolidin-3-yl]-2-(morpholin-4-yl)-6,7-dihydro-5H-pyrrolo[2,3-d]pyrimidin-4-yl}pyrimidin-2-amine hydrochloride] | 1.131 nM | 

same assay, conditions: 1 mM ATP, hydrochloride

SMILES | PI3KA_Act Ki
C[C@H]1COCCN1c1nc(-c2cnc(N)nc2)c2c(n1)N([C@@]1(C)CCN(C(=O)C3(N)CCOC3)C1)CC2 (single isomer, unassigned) [Example 502, hydrochloride] | 0.064 nM
